“And” between values parts separate entries of the source, which are not always exact repeats. Identical values can stand only once. “Also recorded” adds a separate entry of the source.
How the values were obtained:
[1] = molecular target: T1, G2019S LRRK2 (Homo sapiens, UniProt Q5S007, G2019S); experiment: Western blot of Rab8a phosphorylation in 293T cells transfected with G2019S LRRK2 and GFP-Rab8a; format: cell-based; settings: for inhibition of Rab8a phosphorylation by wild-type and G2019S LRRK2: 293T cells; for pRab8/Rab8/LRRK2 normalized to DMSO, Mean / pRab8/Rab8/LRRK2 normalized to DMSO: GFP-11 tagged G2019S LRRK2, 5 μM; for pRab8/Rab8/LRRK2 normalized to DMSO, Mean: 4 replicates; for pRab8/Rab8/LRRK2 normalized to DMSO: individual blots, normalized to WT DMSO (G2019S DMSO mean 2.25334)
T1 construct: The three constructs used in this study are indicated: full-length LRRK2, LRRK2^RCKW, and LRRK2^KW
T1 sequence (Q5S007 whole entry G2019S): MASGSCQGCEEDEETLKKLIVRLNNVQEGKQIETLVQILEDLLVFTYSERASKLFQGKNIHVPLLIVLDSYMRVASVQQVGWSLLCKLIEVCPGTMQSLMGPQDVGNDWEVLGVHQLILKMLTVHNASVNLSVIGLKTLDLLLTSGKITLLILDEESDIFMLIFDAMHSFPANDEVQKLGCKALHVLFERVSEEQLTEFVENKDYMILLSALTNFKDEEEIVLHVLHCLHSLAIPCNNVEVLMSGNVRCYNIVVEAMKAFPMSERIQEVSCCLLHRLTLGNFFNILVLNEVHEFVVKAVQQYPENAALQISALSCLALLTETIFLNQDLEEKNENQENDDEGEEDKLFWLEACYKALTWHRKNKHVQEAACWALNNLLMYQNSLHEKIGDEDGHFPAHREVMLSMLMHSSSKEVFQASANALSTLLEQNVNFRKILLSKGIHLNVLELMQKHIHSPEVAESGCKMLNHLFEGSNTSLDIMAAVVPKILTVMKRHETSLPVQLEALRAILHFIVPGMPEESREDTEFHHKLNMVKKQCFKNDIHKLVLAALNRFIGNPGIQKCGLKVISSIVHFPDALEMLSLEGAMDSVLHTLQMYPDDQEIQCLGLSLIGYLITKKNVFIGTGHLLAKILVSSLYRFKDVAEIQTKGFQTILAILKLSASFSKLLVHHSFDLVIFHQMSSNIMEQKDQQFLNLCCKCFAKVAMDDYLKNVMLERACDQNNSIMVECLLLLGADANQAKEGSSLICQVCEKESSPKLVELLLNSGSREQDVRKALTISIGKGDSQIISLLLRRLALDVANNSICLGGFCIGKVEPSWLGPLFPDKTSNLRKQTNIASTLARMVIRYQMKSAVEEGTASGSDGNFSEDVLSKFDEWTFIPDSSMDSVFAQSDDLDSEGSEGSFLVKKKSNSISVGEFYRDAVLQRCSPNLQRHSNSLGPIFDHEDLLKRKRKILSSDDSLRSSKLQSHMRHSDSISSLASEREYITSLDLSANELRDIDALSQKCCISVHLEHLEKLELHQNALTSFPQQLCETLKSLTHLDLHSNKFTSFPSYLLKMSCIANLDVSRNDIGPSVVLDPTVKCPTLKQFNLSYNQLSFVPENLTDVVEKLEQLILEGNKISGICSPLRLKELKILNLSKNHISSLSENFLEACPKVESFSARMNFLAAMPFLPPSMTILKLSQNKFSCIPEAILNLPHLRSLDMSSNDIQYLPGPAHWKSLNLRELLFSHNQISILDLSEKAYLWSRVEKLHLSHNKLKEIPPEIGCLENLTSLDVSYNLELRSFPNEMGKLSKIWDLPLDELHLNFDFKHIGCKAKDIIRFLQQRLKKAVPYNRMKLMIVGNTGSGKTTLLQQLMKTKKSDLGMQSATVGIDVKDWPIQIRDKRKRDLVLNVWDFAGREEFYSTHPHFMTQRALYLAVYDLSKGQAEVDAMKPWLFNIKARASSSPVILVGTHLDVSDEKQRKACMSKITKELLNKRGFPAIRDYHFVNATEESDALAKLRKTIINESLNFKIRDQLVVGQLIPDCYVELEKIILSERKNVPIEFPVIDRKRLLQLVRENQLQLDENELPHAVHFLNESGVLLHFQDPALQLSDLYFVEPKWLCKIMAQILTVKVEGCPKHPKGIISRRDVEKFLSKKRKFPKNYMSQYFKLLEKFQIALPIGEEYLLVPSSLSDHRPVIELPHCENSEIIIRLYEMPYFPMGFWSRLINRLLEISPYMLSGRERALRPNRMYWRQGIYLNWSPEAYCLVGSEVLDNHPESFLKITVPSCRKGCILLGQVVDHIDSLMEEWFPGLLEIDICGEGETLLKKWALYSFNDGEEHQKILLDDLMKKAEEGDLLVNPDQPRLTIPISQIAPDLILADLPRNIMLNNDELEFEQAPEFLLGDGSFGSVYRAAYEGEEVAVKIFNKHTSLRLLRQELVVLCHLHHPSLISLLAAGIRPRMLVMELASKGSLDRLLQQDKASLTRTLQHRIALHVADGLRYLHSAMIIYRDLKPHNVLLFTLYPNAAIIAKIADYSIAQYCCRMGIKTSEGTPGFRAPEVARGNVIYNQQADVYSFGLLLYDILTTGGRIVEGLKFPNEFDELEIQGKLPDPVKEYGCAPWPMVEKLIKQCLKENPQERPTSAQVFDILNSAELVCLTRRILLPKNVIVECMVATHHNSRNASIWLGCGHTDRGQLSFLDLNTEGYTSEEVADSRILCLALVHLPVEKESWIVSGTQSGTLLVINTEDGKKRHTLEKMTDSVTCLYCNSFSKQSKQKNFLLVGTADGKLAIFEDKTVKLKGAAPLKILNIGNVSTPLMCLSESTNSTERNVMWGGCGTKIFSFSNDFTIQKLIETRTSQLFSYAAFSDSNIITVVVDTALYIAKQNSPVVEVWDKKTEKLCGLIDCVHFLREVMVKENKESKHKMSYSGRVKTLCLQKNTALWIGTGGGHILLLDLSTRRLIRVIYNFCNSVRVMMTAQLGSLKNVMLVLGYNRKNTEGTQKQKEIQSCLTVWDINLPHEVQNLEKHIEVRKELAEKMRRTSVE
Procedure: For all in cell kinase assays, after 48 hours, transfected cells were treated with either DMSO (control) or the indicated inhibitors for 4 hours at 37°C and 5% CO2. Following treatments, cells were washed three times with ice cold PBS. Cells were then lysed in ice cold radioimmunoprecipitation assay (RIPA) lysis buffer [50 mM tris (pH 8.0), 150 mM NaCl, 1% Triton X-100, 0.1% SDS, 0.5% sodium deoxycholate, and 1 mM DTT] in the presence of complete mini EASYpack protease inhibitor cocktail and the PhosSTOP EASYpack phosphatase inhibitor cocktail (Roche). Resuspended and lysed cells were clarified by centrifugation at 13,000g for 15 min at 4°C. […] The membrane was blocked in 5% milk in 1× Tris-buffered saline (TBS) [20 mM tris (pH 8.0) and 150 mM NaCl] for 1 hour shaking at room temperature. […] Membranes were then washed three times in 1× TBS-T before imaging on Li-COR Odyssey CLx controlled by Imaging Studio software (www.licorbio.com/image-studio, RRID:SCR_015795). […] The signal intensity of each band was assessed using the Analyze>Gels tool. The band intensity for phosphorylated LRRK2 was measured and compared to total LRRK2 levels (run under identical conditions on a separate gel). Band intensity for phosphorylated Rab7 or Rab8a was measured and compared against total GFP-Rab7 or GFP-Rab8a (using anti-GFP antibody) and LRRK1/LRRK2 levels as appropriate. Comparative statistical analysis of phosphorylation levels was analyzed using a one-way analysis of variance (ANOVA) and corrected using Tukey’s multiple comparisons test in GraphPad Prism 10 (www.graphpad.com/, RRID:SCR_002798).

[2] = molecular target: LRRK1 (Homo sapiens, UniProt Q38SD2); experiment: Western blot of Rab7 phosphorylation (pS72) in 293T cells transfected with LRRK1 and GFP-Rab7; format: cell-based; settings: for pRab7/Rab7/LRRK1 normalized to DMSO, Mean / pRab7/Rab7/LRRK1 normalized to DMSO: 4 h; for pRab7/Rab7/LRRK1 normalized to DMSO, Mean: 3 replicates; for pRab7/Rab7/LRRK1 normalized to DMSO: individual Western blots; for inhibition of LRRK1 kinase activity in cells: 293T cells, Rab7 phosphorylation
Sequence of LRRK1 (Q38SD2 whole entry): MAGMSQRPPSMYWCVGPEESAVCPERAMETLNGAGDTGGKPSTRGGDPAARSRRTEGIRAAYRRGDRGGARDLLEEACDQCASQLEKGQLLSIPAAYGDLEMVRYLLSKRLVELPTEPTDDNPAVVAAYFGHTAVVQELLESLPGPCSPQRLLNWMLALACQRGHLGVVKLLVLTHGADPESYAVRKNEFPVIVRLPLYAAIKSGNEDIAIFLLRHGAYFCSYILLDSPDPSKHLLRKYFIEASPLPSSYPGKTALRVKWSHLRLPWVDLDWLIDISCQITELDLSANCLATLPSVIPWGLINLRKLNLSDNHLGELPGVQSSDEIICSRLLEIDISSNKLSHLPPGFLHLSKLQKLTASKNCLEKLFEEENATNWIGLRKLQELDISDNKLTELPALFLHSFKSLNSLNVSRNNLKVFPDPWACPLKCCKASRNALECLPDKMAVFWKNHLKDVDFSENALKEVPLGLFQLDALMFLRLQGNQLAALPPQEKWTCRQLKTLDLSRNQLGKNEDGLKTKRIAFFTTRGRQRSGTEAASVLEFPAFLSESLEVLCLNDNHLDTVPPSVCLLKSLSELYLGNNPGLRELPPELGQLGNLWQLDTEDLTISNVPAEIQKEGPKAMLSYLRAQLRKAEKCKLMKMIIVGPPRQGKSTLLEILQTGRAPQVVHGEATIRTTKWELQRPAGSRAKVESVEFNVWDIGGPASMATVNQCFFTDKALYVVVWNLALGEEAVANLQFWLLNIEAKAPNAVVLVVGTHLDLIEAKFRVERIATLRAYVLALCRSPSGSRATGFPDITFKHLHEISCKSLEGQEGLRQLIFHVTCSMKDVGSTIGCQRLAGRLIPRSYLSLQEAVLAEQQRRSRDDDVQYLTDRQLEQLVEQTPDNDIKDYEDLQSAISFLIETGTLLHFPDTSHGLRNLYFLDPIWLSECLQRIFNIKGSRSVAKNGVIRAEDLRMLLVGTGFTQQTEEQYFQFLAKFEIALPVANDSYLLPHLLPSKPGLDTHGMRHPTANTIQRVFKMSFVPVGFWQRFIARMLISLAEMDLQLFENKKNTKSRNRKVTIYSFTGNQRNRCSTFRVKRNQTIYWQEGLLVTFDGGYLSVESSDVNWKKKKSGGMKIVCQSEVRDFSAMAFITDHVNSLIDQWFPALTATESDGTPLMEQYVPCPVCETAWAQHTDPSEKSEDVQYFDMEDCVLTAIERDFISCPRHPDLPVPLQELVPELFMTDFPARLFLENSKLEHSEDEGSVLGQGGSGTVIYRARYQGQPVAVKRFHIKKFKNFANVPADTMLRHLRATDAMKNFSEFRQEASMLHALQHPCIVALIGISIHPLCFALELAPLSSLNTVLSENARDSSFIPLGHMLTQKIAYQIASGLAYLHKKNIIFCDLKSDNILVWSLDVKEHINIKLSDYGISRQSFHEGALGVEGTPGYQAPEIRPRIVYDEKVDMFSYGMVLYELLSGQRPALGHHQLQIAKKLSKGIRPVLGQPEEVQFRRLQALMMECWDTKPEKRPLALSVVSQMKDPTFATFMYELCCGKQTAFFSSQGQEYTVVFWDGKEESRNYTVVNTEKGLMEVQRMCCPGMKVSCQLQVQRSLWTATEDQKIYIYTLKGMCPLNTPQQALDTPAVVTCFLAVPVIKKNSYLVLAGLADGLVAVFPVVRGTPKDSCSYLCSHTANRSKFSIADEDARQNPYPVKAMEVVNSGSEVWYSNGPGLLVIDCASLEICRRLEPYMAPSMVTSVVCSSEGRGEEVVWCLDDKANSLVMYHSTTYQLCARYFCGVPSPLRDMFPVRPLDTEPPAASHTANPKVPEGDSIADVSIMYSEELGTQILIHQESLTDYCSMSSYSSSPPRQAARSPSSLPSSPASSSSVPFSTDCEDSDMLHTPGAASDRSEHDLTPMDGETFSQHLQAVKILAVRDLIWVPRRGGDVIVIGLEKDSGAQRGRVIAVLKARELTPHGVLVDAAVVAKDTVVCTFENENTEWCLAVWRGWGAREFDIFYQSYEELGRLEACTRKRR
Procedure: (§1) For all in cell kinase assays, after 48 hours, transfected cells were treated with either DMSO (control) or the indicated inhibitors for 4 hours at 37°C and 5% CO2. Following treatments, cells were washed three times with ice cold PBS. Cells were then lysed in ice cold radioimmunoprecipitation assay (RIPA) lysis buffer [50 mM tris (pH 8.0), 150 mM NaCl, 1% Triton X-100, 0.1% SDS, 0.5% sodium deoxycholate, and 1 mM DTT] in the presence of complete mini EASYpack protease inhibitor cocktail and the PhosSTOP EASYpack phosphatase inhibitor cocktail (Roche). Resuspended and lysed cells were clarified by centrifugation at 13,000g for 15 min at 4°C. NuPAGE LDS Sample Buffer (1×) and NuPAGE Sample Reducing Agent (1×; Invitrogen) were added to the clarified supernatants, and the samples were boiled at 95°C for 5 min and spun down at 13,000g for 10 min. For Western blotting, 15 μl of sample was loaded into a NuPAGE 4 to 12% gradient bis-tris gel (Invitrogen) and run at 120 V for 75 min before transfer to polyvinylidene difluoride transfer membrane (0.45-μm pore size, Millipore) for 240 min at 80 V at 4°C. The membrane was blocked in 5% milk in 1× Tris-buffered saline (TBS) [20 mM tris (pH 8.0) and 150 mM NaCl] for 1 hour shaking at room temperature. Primary antibodies [monoclonal rabbit anti-LRRK2 (Abcam, ab133474; RRID: AB_2713963), polyclonal rabbit anti-LRRK1 (Abcam, ab228666), monoclonal rabbit anti-LRRK2 phospho-S935 (Abcam, ab133450; RRID: AB_2732035), monoclonal rabbit anti-Rab8a phospho-T72 (Abcam, ab230260; RRID: AB_2814988), monoclonal rabbit anti-Rab7 phospho-S72 (Abcam, ab302494; RRID: AB_2933985), monoclonal rabbit anti–glyceraldehyde-3-phosphate dehydrogenase (GAPDH; Cell Signalling Technology, 2118; RRID: AB_561053), and monoclonal mouse anti-GFP (Santa Cruz Biotechnology, sc-9996; RRID: AB_627695)] were diluted in 5% milk in TBS and incubated with membrane for 16 hours at 4°C. Following incubation, membranes were washed three times with 1× TBS-T [20 mM tris (pH 8.0), 150 mM NaCl, and 0.1% Tween 20] before incubation with IRDye 680RD goat anti-rabbit IgG (LI-COR, 926-68071; RRID: AB_10956166) and IRDye 800CW goat anti-mouse IgG (LI-COR, 926-32210; RRID: AB_621842) secondary antibodies in 5% milk in 1× TBS for 1 hour at room temperature. Membranes were then washed three times in 1× TBS-T before imaging on Li-COR Odyssey CLx controlled by Imaging Studio software (www.licorbio.com/image-studio, RRID:SCR_015795). Image processing and quantification were performed in ImageJ version 2.14.0 (National Institutes of Health; https://imagej.net/, RRID:SCR_003070). The signal intensity of each band was assessed using the Analyze>Gels tool. The band intensity for phosphorylated LRRK2 was measured and compared to total LRRK2 levels (run under identical conditions on a separate gel). Band intensity for phosphorylated Rab7 or Rab8a was measured and compared against total GFP-Rab7 or GFP-Rab8a (using anti-GFP antibody) and LRRK1/LRRK2 levels as appropriate. Comparative statistical analysis of phosphorylation levels was analyzed using a one-way analysis of variance (ANOVA) and corrected using Tukey’s multiple comparisons test in GraphPad Prism 10 (www.graphpad.com/, RRID:SCR_002798). (For current step-by-step protocol for LRRK transfection and Western blotting, see dx.doi.org/10.17504/protocols.io.kxygx9bozg8j/v1.)

[3] = test system: LRRK2 S935 phosphorylation; experiment: Western blot of LRRK2 biomarker site pS935 in transfected 293T cells; format: cell-based, human; settings: for pS935 LRRK2/LRRK2 normalized to DMSO, Mean / pS935 LRRK2/LRRK2 normalized to DMSO: 4 h; for pS935 LRRK2/LRRK2 normalized to DMSO, Mean: 3 replicates; for pS935 LRRK2/LRRK2 normalized to DMSO: individual Western blots; for effect on phosphorylation of LRRK2 S935: 293T cells, MLi-2 500 nM
Procedure: as §1

Row | Compound | inhibition of Rab8a phosphorylation by wild-type and G2019S LRRK2 [1] | pRab8/Rab8/LRRK2 normalized to DMSO, Mean [1] | pRab7/Rab7/LRRK1 normalized to DMSO, Mean ([2]; 250 nM) | pRab7/Rab7/LRRK1 normalized to DMSO, Mean ([2]; 500 nM) | pRab7/Rab7/LRRK1 normalized to DMSO, Mean ([2]; 1 μM) | pRab7/Rab7/LRRK1 normalized to DMSO, Mean ([2]; 5 μM) | pS935 LRRK2/LRRK2 normalized to DMSO, Mean ([3]; 250 nM) | pS935 LRRK2/LRRK2 normalized to DMSO, Mean ([3]; 500 nM) | pS935 LRRK2/LRRK2 normalized to DMSO, Mean ([3]; 1 μM) | pS935 LRRK2/LRRK2 normalized to DMSO, Mean ([3]; 5 μM) | pS935 LRRK2/LRRK2 normalized to DMSO, Mean ([3]; 10 μM) | effect on phosphorylation of LRRK2 S935 [3] | further results
1 | Cc1ccc(-n2nc(C(C)(C)C)cc2NC(=O)Nc2cccc(-c3c[nH]c4nc(Cl)nc(N5CCOCC5)c34)c2)cc1 [Compound 30] | inhibited phosphorylation of Rab8a by both the wild-type and mutant kinase | 0.5785 | 0.2801 | 0.132 | 0.07421 | 0.02826 | 0.9168 | 0.8971 | 0.8756 | 0.9338 | 0.9235 | none of the tested type II inhibitors (broad-spectrum kinase inhibitor Ponatinib or our top compounds RN277 and RN341) reduced the phosphorylation level at this site | pRab8/Rab8/LRRK2 normalized to DMSO ([1]; listed as RN277): 0.5672 and 0.4996 and 1.119 and 0.1285; pRab7/Rab7/LRRK1 normalized to DMSO ([2]; 250 nM, listed as RN277): 0.1952 and 0.2204 and 0.4248; pRab7/Rab7/LRRK1 normalized to DMSO ([2]; 500 nM, listed as RN277): 0.134 and 0.06831 and 0.1937; pRab7/Rab7/LRRK1 normalized to DMSO ([2]; 1 µM, listed as RN277): 0.05675 and 0.07868 and 0.08722; pRab7/Rab7/LRRK1 normalized to DMSO ([2]; 5 µM, listed as RN277): 0.01168 and 0.03108 and 0.04201; inhibition of LRRK1 kinase activity in cells ([2]; listed as RN277): strong inhibitory effect; also recorded: potently inhibited LRRK1 in cells; pS935 LRRK2/LRRK2 normalized to DMSO ([3]; 250 nM, listed as 277): 0.9442 and 0.8289 and 0.9773; pS935 LRRK2/LRRK2 normalized to DMSO ([3]; 500 nM, listed as 277): 0.9489 and 0.8102 and 0.9321; pS935 LRRK2/LRRK2 normalized to DMSO ([3]; 1 μM, listed as 277): 1.005 and 0.7529 and 0.869; pS935 LRRK2/LRRK2 normalized to DMSO ([3]; 5 μM, listed as 277): 0.9369 and 0.9197 and 0.9447; pS935 LRRK2/LRRK2 normalized to DMSO ([3]; 10 μM, listed as 277): 0.9197 and 0.9052 and 0.9455
2 | CCSc1nc(NC)c2c(-c3cccc(NC(=O)Nc4cc(C(C)(C)C)nn4-c4ccc(C)cc4)c3)c[nH]c2n1 [Compound 32] | inhibited phosphorylation of Rab8a by both the wild-type and mutant kinase | 0.8793 | 0.1265 | 0.07673 | 0.0594 | 0.03197 | 0.9603 | 0.9221 | 0.8783 | 0.8974 | 0.9517 | none of the tested type II inhibitors (broad-spectrum kinase inhibitor Ponatinib or our top compounds RN277 and RN341) reduced the phosphorylation level at this site | pRab8/Rab8/LRRK2 normalized to DMSO ([1]; listed as RN341): 0.923 and 1.39 and 0.7952 and 0.4091; pRab7/Rab7/LRRK1 normalized to DMSO ([2]; 250 nM, listed as RN341): 0.09263 and 0.098 and 0.1889; pRab7/Rab7/LRRK1 normalized to DMSO ([2]; 500 nM, listed as RN341): 0.0375 and 0.09153 and 0.1011; pRab7/Rab7/LRRK1 normalized to DMSO ([2]; 1 µM, listed as RN341): 0.03839 and 0.04963 and 0.09017; pRab7/Rab7/LRRK1 normalized to DMSO ([2]; 5 µM, listed as RN341): 0.0003413 and 0.05428 and 0.04127; inhibition of LRRK1 kinase activity in cells ([2]; listed as RN341): strong inhibitory effect; also recorded: potently inhibited LRRK1 in cells; pS935 LRRK2/LRRK2 normalized to DMSO ([3]; 250 nM, listed as 341): 0.9872 and 0.9193 and 0.9743; pS935 LRRK2/LRRK2 normalized to DMSO ([3]; 500 nM, listed as 341): 0.9409 and 0.8795 and 0.9459; pS935 LRRK2/LRRK2 normalized to DMSO ([3]; 1 μM, listed as 341): 0.9145 and 0.9018 and 0.8186; pS935 LRRK2/LRRK2 normalized to DMSO ([3]; 5 μM, listed as 341): 0.9195 and 0.9472 and 0.8255; pS935 LRRK2/LRRK2 normalized to DMSO ([3]; 10 μM, listed as 341): 0.9588 and 0.9056 and 0.9906
3 | Cc1ccc(C(=O)Nc2ccc(CN3CCN(C)CC3)c(C(F)(F)F)c2)cc1C#Cc1cnc2cccnn12 [Ponatinib, reference compound] | – | – | – | – | – | – | – | – | – | 0.91 | – | none of the tested type II inhibitors (broad-spectrum kinase inhibitor Ponatinib or our top compounds RN277 and RN341) reduced the phosphorylation level at this site | pS935 LRRK2/LRRK2 normalized to DMSO ([3]; 5 μM): 0.7959 and 0.8749 and 1.059

Reference: paper PMC12136037, “Type II kinase inhibitors that target Parkinson’s disease–associated LRRK2” (Science Advances, 2025)
